Assay results as given in patent publication US6610324B2, “Flupirtine in the treatment of fibromyalgia and related conditions” (The McLean Hospital Corporation, priority 1999, dated 2003).

How the values were obtained:
[1] = system: patients with fibromyalgia; experiment: Flupirtine treatment of patients with fibromyalgia; type: in vivo
Excerpt: Flupirtine is an analgesic that has been used in Europe to treat the pain associated with surgery, cancer, trauma, and liver disease. It acts via the central nervous system through non-opite pain pathways, possibly involving the thalamus or spinal pain pathways.

[2] = in some, but not all, studies; cited from earlier work
[3] = cited from earlier work

Compound: CCOC(=O)Nc1ccc(NCc2ccc(F)cc2)nc1N [flupirtine, 2-amino-3-carbethoxyamino-6-(4-fluorobenzylamino)-pyridine]
- analgesic action compared with opiates ([1]; patients with fibromyalgia and related conditions): roughly comparable to the effect produced by opiates
- effect on chronic and severe body pain ([1]; some patients with fibromyalgia, also where high doses of opiates, NSAIDs and placquenil fail): completely eliminating the chronic and severe body pain
- effectiveness in relieving pain compared with opiates [2]: as effective as opiates
- withdrawal symptoms ([3]; abrupt discontinuation of administration): does not produce withdrawal symptoms
- sedation ([3]; compared with opiate drugs): less sedating than opiate drugs
- addiction and abuse ([3]; compared with opiates, no reports of abuse): not addictive
- tolerance to analgesic effects ([3]; human, in vivo): do not acquire a tolerance
- reported side effects ([3]; relatively safe at dosages lower than 600 mg per day): dizziness, drowsiness, pruritus, dry mouth, and, less frequently, nausea, depression, sleep disturbance, and headache
- cardiovascular side effects ([3]; unlike opiates): not associated with cardiovascular side effects
- muscle relaxant properties ([3]; unlike opiates): exhibits muscle relaxant properties
